Measurements taken from EP0394983A2, “Anthracycline derivatives with cytostatic activity” (priority 1989, dated 1990).
≈ marks a conversion by molar mass, not a printed value. Where two headings read alike, the source gives them in different places.

Tests used:
L1210 Leukämiezellen = assay: Colony formation of L1210 leukaemia cells in soft agar (cytotoxicity in vitro); type: cell-based, Maus; details: Mus musculus
Text: Die zytostatische Wirksamkeit der erfindungsgemäßen Verbindungen wurde anhand von L1210 Leukämiezellen der Maus getestet. Hierzu wurde die Koloniebildung von L1210 Leukämiezellen in Agarplatten herangezogen. Diese Methode dient zum Nachweis des Einflusses der Testsubstanzen auf das Wachstumsverhalten der Zellen über 1 Stunde oder über mehrere Generationen. Bei einer Zellzykluszeit von 10-12 Stunden werden dabei in der Testzeit von 7 Tagen etwa 14 aufeinanderfolgende Generationen beobachtet. Die erfindungsgemäßen zytostatisch wirksamen Substanzen bewirken in diesem Test eine Reduktion der zu beobachtenden Koloniezahl gegenüber einer unbehandelten Kontrollprobe.
Verfahrensweise zur Ermittlung der Koloniebildung von L1210 Leukämiezellen in Soft-Agar
500 Leukämiezellen pro Platte wurden mit unterschiedlichen Konzentrationen der Testsubstanz 1 Stunde bei 37°C inkubiert. Anschließend wurden die Zellen zweimal mit McCoy5A-Medium gewaschen und schließlich in Petrischalen nach Zugabe von 0,3 % Agar ausgegossen. Kontrollen wurden lediglich mit frischem Medium inkubiert. Anstelle der einstündigen Inkubation wurden in manchen Fällen unterschiedliche Konzentrationen und Testsubstanzen der oberen Agarschicht zugemischt, um so eine kontinuierliche Exposition der Zellen über die gesamte Inkubationszeit zu erreichen. Nach Erstarren des Agars wurden die Platten im Brutschrank 7 Tage bei 37°C inkubiert (5 Vol.-% CO₂, 95 % relative Luftfeuchtigkeit). Anschließend wurde die Zahl der entstandenen Kolonien mit einem Durchmesser von mehr als 60 µm gezählt. Die Ergebnisse wurden angegeben als Koloniezahl in behandelten Agarplatten in Prozent der unbehandelten Kontrolle. Aus der so erhalte nen Dosiswirkungskurve wurde die IC₅₀ als Maß für die Wirksamkeit der Substanz ermittelt. Die Ergebnisse für die hier beschriebenen Verbindungen im Vergleich zu Adriamycin sind in Tabelle 1 zusammengefaßt.

[1] = Stability under weakly acidic conditions (qualitative statement); type: physicochemical; details: unter schwach sauren Bedingungen
[2] = L1210, 168 h, continuous exposure over the whole incubation time (7 days, 37°C), substance mixed into upper agar layer, colony count vs untreated control, read-out: Dauerinku-bation IC50
[3] = L1210, 1 h incubation at 37°C, cells washed, then 7 days in agar, colony count vs untreated control, read-out: 1 h-Inku-bation IC50

SMILES	IC50 (L1210 Leukämiezellen; L1210, 168 h, read-out: Dauerinku-bation IC50) [µg/mL]	IC50 (L1210 Leukämiezellen; L1210, read-out: 1 h-Inku-bation IC50) [µg/mL]	Stabilität [1]	IC50 (L1210 Leukämiezellen; [2]) [µg/mL]	IC50 (L1210 Leukämiezellen; [3]) [µg/mL]
CC[C@@]1(O)C[C@H](O[C@H]2C[C@H](N(C)CCCl)[C@H](O)[C@H](C)O2)c2c(O)c3c(c(O)c2[C@H]1O)C(=O)c1cccc(O)c1C3=O [Verbindung 1, 7-0-(3′-N-Chlorethyl-3′-N-methyl-α-L-daunosaminyl)-β-rhodomycinon]	0.03 (≈ 0.0507 µM)	0.11 (≈ 0.186 µM)	relativ stabil	–	–
CC[C@@]1(O)C[C@H](O[C@H]2C[C@H](N(C)CCN(C)C)[C@H](O)[C@H](C)O2)c2c(O)c3c(c(O)c2[C@H]1O)C(=O)c1cccc(O)c1C3=O [Verbindung 2, 7-0-(3′-N-Dimethylaminoethyl-3′-N-methyl-α-L-,daunosaminyl)-β-rhodomycinon]	–	–	–	0.033 (≈ 0.0549 µM)	0.12 (≈ 0.2 µM)
CC[C@@]1(O)C[C@H](O[C@H]2C[C@H](N(C)CCN(C)CCNC)[C@H](O)[C@H](C)O2)c2c(O)c3c(c(O)c2[C@H]1O)C(=O)c1cccc(O)c1C3=O [Verbindung 3, 7-0-(3′-N-(N,N′-Dimethyl-ethylendiaminoethyl)-3′-N-methyl-α-L-daunosaminyl)-β-rhodomycinon]	–	–	–	0.1 (≈ 0.155 µM)	0.6 (≈ 0.932 µM)
CC[C@@]1(O)C[C@H](O[C@H]2C[C@H](N(C)CCNCCc3c[nH]cn3)[C@H](O)[C@H](C)O2)c2c(O)c3c(c(O)c2[C@H]1O)C(=O)c1cccc(O)c1C3=O [Verbindung 4, 7-0-(3′-N-Histaminoethyl-3′-N-methyl-α-L-daunosaminyl)-β-rhodomycinon]	–	–	–	0.4 (≈ 0.6 µM)	1.2 (≈ 1.8 µM)
